According to patent US9233961B2, “Compounds and compositions for the treatment of parasitic diseases” (Novartis AG, priority 2013, dated 2016):
pEC50: −log10 of the molar value. Where two headings read alike, the source gives them in different places.

Tests used:
[1] = test system: Leishmania donovani axenic amastigote parasites; assay: Leishmania donovani axenic amastigote proliferation assay; assay type: cell-based; conditions: read-out: L. donovani amastigotes EC50
How it was run: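 EC50 values come from CellTiter-Glo luminescence after 2-day compound exposure of axenic amastigotes (9600 per well) at 37 °C, 5% CO2. Medium: RPMI 1640, 20% heat-inactivated FBS, folic acid, adenosine, D-glucose, 25 mM MES, adjusted to pH 5.5.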

[2] = test system: L. donovani HU3 strain in mouse peritoneal macrophages; assay: Assay for proliferation of Leishmania parasites in mouse peritoneal macrophages; assay type: cell-based, Leishmania donovani; conditions: Leishmania donovani, Peritoneal macrophage
How it was run: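 EC50 derives from counting SYBR Green-stained parasite nuclei by high-content imaging after 5 days' compound exposure. Host cells were uninfected BALB/c peritoneal macrophages, infected for 24 h before dosing with spleen-derived L. donovani HU3 parasites from mice infected 9–11 weeks.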

[3] = test system: Trypanosoma brucei Lister 427 strain bloodstream form; assay: Assay for proliferation of kinetoplastid parasite Trypanosoma brucei; assay type: cell-based
How it was run: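 Bloodstream-form T. brucei Lister 427 in HMI-9 medium was exposed to compound (DMSO vehicle) for 48 hours at 37° C, 5% CO2. Parasite growth was read as ATP by CellTiter-Glo luminescence, with EC50 calculated from percent inhibition.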

[4] = test system: Trypanosoma cruzi amastigotes (Tulahuen strain) cultured in 3T3 fibroblast cells; assay: Assay for proliferation of kinetoplastid parasite Trypanosoma cruzi; assay type: cell-based; conditions: 144 h
Text: Assay for Proliferation of Kinetoplastid Parasite Trypanosoma cruzi.
Compounds of the invention can be assayed to measure their capacity to inhibit proliferation of kinetoplastid parasite Trypanosoma cruzi. The screening procedure is for identifying compounds with inhibitor activity against Trypanosoma cruzi amastigotes cultured in 3T3 fibroblast cells. The assay is done using the mammalian stage (amastigotes) of T. cruzi that replicates in the intracellular space of host cells. The host cells are initially infected with the culture-derived trypomastigotes that rapidly invade and then divide as amastigotes. The protocol uses the Tulahuen strain of T. cruzi that has been engineered to express the E. coli beta-galactosidase gene (Lac-Z) (Antimicr. Agents Chemoth. 40:2592, 1996). This allows for a colorimetric readout by using the substrate CPRG and an absorbance plate reader.
3T3 fibroblast cells are re-suspended in RPMI-1640 medium without phenol red medium supplemented with 10% FBS (heat inactivated), 100 μg/ml penicillin, and 100 μg/ml streptomycin. Forty μL of suspension (1,000 cells) is dispensed into 384-well plates and incubated overnight at 37° C. temperature and in atmosphere containing 5% CO2. The following day, 100 nL of compounds of the invention in DMSO are added to plate wells containing 3T3 cells. At the same time control compounds (benznidazole and nifurtimox) and DMSO are added to plates to serve as the positive and negative controls, respectively. After that, 10 μL of media containing 10,000 T. cruzi trypomastigotes are added to each plate well and plates are placed back into incubators. After 6 day incubation, 10 μL of reagent solution (0.6 mM CPRG, 0.6% NP-40 in PBS) is added to plates and incubated at room temperature for 2 hours. Absorbance is then measured on SpectraMax Gemini […] to determine relative number of T. cruzi cells present in each plate well. The percentage inhibition of 50%, EC50, is calculated for each compound. […] Typically, the EC50 is 10 μM or less.

[5] = read-out: L. donavani Macrophage EC50
[6] = TULAHUEN, Fibroblast, read-out: T cruzi EC50
[7] = Lister 427 bloodstream form, 48 hours, read-out: T. brucei EC50
[8] = Tulahuen amastigotes in 3T3 fibroblast cells, 6 day incubation, read-out: T cruzi EC50

Row | Structure (SMILES) | pEC50 [1] | pEC50 [2, 5] | pEC50 ([3]; 48 h, read-out: T. brucei EC50) | pEC50 [4, 6] | pEC50 ([1]; axenic amastigotes in vitro) | pEC50 [3, 7] | pEC50 [4, 8] | pEC50 ([4]; TULAHUEN, T. cruzi in 3T3 fibroblast cells, 6 day incubation, CPRG absorbance, read-out: EC50) | pEC50 ([2]; 120 h, L. donovani in mouse peritoneal macrophages, 5 days culture, SybrGreen parasite nuclei count, read-out: EC50) | pEC50 ([3]; T. brucei Lister 427, 48 hours, Cell Titer Glo, read-out: EC50)
1 | CNc1ccc(-c2cnc3nc(-c4cc(NC(=O)OCCOC)ccc4Cl)[nH]c3c2)cc1 [Example 350, 2-Methoxyethyl N-(4-chloro-3-{6-[4-(methylamino)phenyl]-1H-imidazo[4,5-b]pyridin-2-yl}phenyl)carbamate] | 6.17 | 5.90 | 6.10 | 6.29 |  |  |  |  |  | 
2 | CCN(CC)CCCCCCNC(=O)Nc1ccc(Cl)c(-c2nc3ncc(C)cc3[nH]2)c1 [Compound 227] |  | < 4.30 |  |  | < 4.60 | < 4.82 | < 4.70 |  |  | 
3 | COc1ccc(C(=O)Nc2ccc(Cl)c(-c3nc4ncc(C)cc4[nH]3)c2)c(OC)c1 [Compound 147] |  | 5.06 |  |  | < 4.60 | 5.44 | 5.62 |  |  | 
4 | Cc1cnc2nc(-c3cc(NC(=O)c4ccccc4Cl)ccc3Cl)[nH]c2c1 [Compound 149] |  | 5.04 |  |  | < 4.60 | 4.96 | 6.26 |  |  | 
5 | O=C(Nc1ccc(Cl)c(-c2nc3ncc(Br)cc3[nH]2)c1)C1CCCC1 [Compound 374] |  | 5.23 |  |  | 4.78 | 5.29 | 6.07 |  |  | 
6 | Cc1cnc2nc(-c3cc(NC(=O)OC4CCCCC4)ccc3Cl)[nH]c2c1 [Compound 222] |  | < 4.65 |  |  | < 4.60 | < 4.60 | 5.19 |  |  | 
7 | Cc1cnc2nc(-c3cc(NC(=O)OC4CCCC4)ccc3Cl)[nH]c2c1 [Compound 218] |  | 5.12 |  |  | < 4.60 | 4.83 | 5.67 |  |  | 
8 | Cc1cnc2nc(-c3cc(NC(=O)N(C)C)ccc3Cl)[nH]c2c1 [Compound 243] |  | 4.40 |  |  | 5.30 | 6.35 | 5.59 |  |  | 
9 | COc1cccc(C(=O)Nc2ccc(Cl)c(-c3nc4ncc(C)cc4[nH]3)c2)c1 [Compound 134] |  | 4.86 |  |  | 4.67 | 6.05 | 5.59 |  |  | 
10 | O=C(Nc1ccc(Cl)c(-c2nc3ncc(-c4ccc(OCc5ccccc5)cc4)cc3[nH]2)c1)c1ccco1 [Compound 47] |  | < 5.14 |  |  | 6.34 | 7.40 | 6.98 |  |  | 
11 | Cc1cnc2nc(-c3cc(NC(=O)N(C)C4CCCC4)ccc3Cl)[nH]c2c1 [Compound 231] |  | 4.55 |  |  | < 4.60 | < 4.63 | < 4.70 |  |  | 
12 | Cc1cnc2nc(-c3cc(NC(=O)C4CCCO4)ccc3Cl)[nH]c2c1 (stereo not shown) [Compound 138] |  | < 4.30 |  |  | < 4.60 | < 4.60 | < 4.70 |  |  | 
13 | Cc1cnc2nc(-c3cc(NC(=O)c4ccc[nH]4)ccc3Cl)[nH]c2c1 [Compound 100] |  | 5.19 |  |  | 5.20 | 5.85 | 5.66 |  |  | 
14 | Cc1cnc2nc(-c3cc(NC(=O)c4nccnc4O)ccc3Cl)[nH]c2c1 [Compound 174] |  | < 4.30 |  |  | < 4.60 | < 4.60 | < 4.70 |  |  | 
15 | Cc1cnc2nc(-c3cc(NC(=O)Cc4cccc(Cl)c4)ccc3Cl)[nH]c2c1 [Compound 85] |  | 4.67 |  |  | < 4.60 | 5.03 | < 4.94 |  |  | 
16 | CCOC(=O)Nc1ccc(Cl)c(-c2nc3ncc(-c4ccc(NC)cc4)cc3[nH]2)c1 [Compound 351] |  | 5.43 |  |  | 5.92 | 6.69 | 6.61 |  |  | 
17 | Cc1cnc2nc(-c3cc(NC(=O)c4ccccc4N(C)C)ccc3Cl)[nH]c2c1 [Compound 150] |  | 4.64 |  |  | < 4.60 | 4.92 | 5.05 |  |  | 

Row | Structure (SMILES) | pEC50 [1] | pEC50 [2, 5] | pEC50 ([3]; 48 h, read-out: T. brucei EC50) | pEC50 [4, 6] | pEC50 ([1]; axenic amastigotes in vitro) | pEC50 [3, 7] | pEC50 [4, 8] | pEC50 ([4]; TULAHUEN, T. cruzi in 3T3 fibroblast cells, 6 day incubation, CPRG absorbance, read-out: EC50) | pEC50 ([2]; 120 h, L. donovani in mouse peritoneal macrophages, 5 days culture, SybrGreen parasite nuclei count, read-out: EC50) | pEC50 ([3]; T. brucei Lister 427, 48 hours, Cell Titer Glo, read-out: EC50)
18 | Cc1cnc2nc(-c3cc(NC(=O)NCCN(C(C)C)C(C)C)ccc3Cl)[nH]c2c1 [Compound 236] |  | 4.54 |  |  | < 4.60 | 5.95 | 4.75 |  |  | 
19 | CNC(=O)Nc1ccc(Cl)c(-c2nc3ncc(C)cc3[nH]2)c1 [Compound 238] |  | 4.53 |  |  | < 4.60 | 5.04 | < 4.70 |  |  | 
20 | Cc1cnc2nc(-c3cc(NC(=O)c4ccc(S(C)(=O)=O)s4)ccc3Cl)[nH]c2c1 [Compound 175, N-(4-chloro-3-{6-methyl-1H-imidazo [4,5-b]pyridin-2-yl}phenyl)-5-methanesulfonylthiophene-2-carboxamide] |  | < 4.54 |  |  | < 4.60 | < 4.69 | 7.17 | 7.17 |  | 
21 | CN(C(=O)OC(C)(C)C)c1ccc(-c2cnc3nc(-c4cc(NC(=O)N5CCCC5)ccc4Cl)[nH]c3c2)cc1 [Compound 308, tert-butyl N-[4-(2-{2-chloro-5-[(pyrrolidin-1-yl)carbonylamino]phenyl}-1H-imidazo[4,5-b]pyridin-6-yl)phenyl]-N-methylcarbamate] |  | 7.07 |  |  | 6.94 | 7.60 | 7.64 |  | ~7.10 | 
22 | Cc1cnc2nc(-c3cc(NC(=O)c4cccc(Cl)c4)ccc3Cl)[nH]c2c1 [Compound 89] |  | 5.04 |  |  | 5.43 | 6.59 | 6.76 |  |  | 
23 | Cc1cnc2nc(-c3cc(NC(=O)c4ccc(C)o4)ccc3Cl)[nH]c2c1 [Compound 126] |  | 5.79 |  |  | 5.80 | 6.52 | 6.83 |  |  | 
24 | O=C(Nc1ccc(Cl)c(-c2nc3ncc(-c4cccnc4)cc3[nH]2)c1)c1ccco1 [Compound 50] |  | 5.79 |  |  | 6.87 | 8.58 | 7.28 |  |  | 
25 | Cc1cnc2nc(-c3cc(NC(=O)c4cnc(Cl)cn4)ccc3Cl)[nH]c2c1 [Compound 135] |  | < 4.59 |  |  | < 4.60 | < 5.82 | < 4.70 |  |  | 
26 | Cc1cnc2nc(-c3cc(NC(=O)NCCN(C)C)ccc3Cl)[nH]c2c1 [Example 226, 1-(4-Chloro-3-{6-methyl-1H-imidazo[4,5-b]pyridin-2-yl}phenyl)-3-[2-(dimethylamino)ethyl]urea] | < 4.60 | < 4.30 | < 4.65 | < 4.70 |  |  |  |  |  | 
27 | COCCOc1ccc(-c2cnc3nc(-c4cc(NC(=O)c5ccco5)ccc4Cl)[nH]c3c2)c(F)n1 [Compound 52] |  | < 4.84 |  |  | 6.73 | 7.44 | 7.17 |  |  | 
28 | CC(C)(C)OC(=O)N1CC=C(c2cnc3nc(-c4cc(NC(=O)c5ccco5)ccc4Cl)[nH]c3c2)CC1 [Compound 63] |  | 5.80 |  |  | 6.25 | 7.66 | 6.97 |  |  | 
29 | O=C1Cc2cc(-c3cnc4nc(-c5cc(NC(=O)C6CCCC6)ccc5Cl)[nH]c4c3)ccc2N1 [Compound 377] |  | 5.24 |  |  | 5.18 | 6.24 | 5.69 |  |  | 
30 | Cc1cnc2nc(-c3cc(NC(=O)N(C)C4CCOC4)ccc3Cl)[nH]c2c1 (stereo not shown) [Compound 232] |  | < 4.30 |  |  | < 4.60 | < 4.60 | < 4.70 |  |  | 
31 | Cc1cnc2nc(-c3cc(NC(=O)Cc4ccncc4)ccc3Cl)[nH]c2c1 [Compound 148] |  | < 4.30 |  |  | < 4.60 | < 4.61 | < 4.70 |  |  | 
32 | CNc1ccc(-c2cnc3nc(-c4cc(NC(=O)c5cnccn5)ccc4Cl)[nH]c3c2)cc1 [Compound 348] |  | 6.04 |  |  | 6.60 | 7.62 | 7.19 |  |  | 
33 | COc1ccc(-c2cnc3nc(-c4cc(NC(=O)c5ccco5)ccc4Cl)[nH]c3c2)cn1 [Compound 29, N-{4-chloro-3-[6-(6-methoxypyridin-3-yl)-1H-imidazo [4,5-b]pyridin-2-yl]phenyl}furan-2-carboxamide] |  | 5.64 |  |  | 6.63 | 7.63 | 7.15 |  |  | 7.62
34 | Cc1cnc2nc(-c3cc(NC(=O)N4CCC(N(C)C)C4)ccc3Cl)[nH]c2c1 (stereo not shown) [Compound 233] |  | < 4.30 |  |  | < 4.60 | < 4.60 | < 4.70 |  |  | 
